Among the data in patent US10851082B2, “Substituted aromatic n-heterocyclic compounds as inhibitors of mitogen-activated protein kinase interacting kinase 1 (MNK1) and 2 (MNK2)” (Northwestern University, priority 2015, dated 2020) are IC50 and EC50 values, retold here.

For orientation: IC50 means the concentration that inhibits the measured activity by half. As usually defined, the EC50 is the concentration needed to bring the measured effect to its halfway point.

Read-outs that look alike come from different tables or passages of the source.

The target in assay [1] is Mnk1. Briefly: Cellular inhibition of Mnk1, flow cytometry of phospho-eIF-4E (Ser209), MV4-11 cells. As to conditions: read-out: MV4-11 pEIF4E IC50, phospho-eIF-4E Ser209, flow cytometry. The class given is cell-based.
Method: (§1) To evaluate inhibition of Mnk1 in cells, we utilized a flow cytometry-based assay based on activation of eIF-4E, the downstream target of Mnk1. The assay utilizes flow cytometry to quantitatively measure the amount of eIF-4E that is phosphorylated at residue Ser209 in cell lysate from U937 or MV4-11 cell lines. Cells grown in the presence of serum were treated with vehicle or test compounds across a range of concentrations. Levels of phospho-eIF-4E were measured and IC50 values were determined by logistic regression to quantify the potency of each compound.
In assay [2] the target is Mnk1. Briefly: Cellular inhibition of Mnk1, flow cytometry of phospho-eIF-4E (Ser209), U937 cells. As to conditions: read-out: U937 pEIF4E IC50, phospho-eIF-4E Ser209, flow cytometry. The class given is cell-based. (In general: A flow cytometer gives signals particle by particle.)
Method: as §1
The target in a further assay is Mnk2 (Homo sapiens (Human), UniProt Q9HBH9). Briefly: Mnk2 kinase inhibition, ADP-Glo ADP monitoring assay. The class given is biochemical. Particulars: ADP-Glo kinase assay; read-out: Mnk2 IC50. A general note: ADP-Glo first removes unused ATP, then detects ADP through luciferase.
Mnk2, sequence (Q9HBH9 whole entry): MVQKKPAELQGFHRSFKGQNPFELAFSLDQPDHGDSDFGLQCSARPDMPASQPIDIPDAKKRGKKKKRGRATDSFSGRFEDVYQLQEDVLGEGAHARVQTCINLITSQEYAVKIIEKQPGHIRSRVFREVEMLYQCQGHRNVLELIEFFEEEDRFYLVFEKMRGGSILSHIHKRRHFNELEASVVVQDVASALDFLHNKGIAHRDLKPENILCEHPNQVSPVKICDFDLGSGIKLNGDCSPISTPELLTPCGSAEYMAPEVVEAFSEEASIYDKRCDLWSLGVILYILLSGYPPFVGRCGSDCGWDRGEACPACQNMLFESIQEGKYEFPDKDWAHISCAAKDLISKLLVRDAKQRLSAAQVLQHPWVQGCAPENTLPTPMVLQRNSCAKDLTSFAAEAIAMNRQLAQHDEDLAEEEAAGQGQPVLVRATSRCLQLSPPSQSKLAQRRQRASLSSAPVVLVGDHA
The next assay deals with U937 cells. Put plainly: Cell viability assay (CellTiter-Glo), U937. In kind it is cell-based. Particulars: Homo sapiens. (In general: ATP-based viability assays read luminescence as a measure of living cells.)
Assay [3] deals with T1, Mnk1 (Homo sapiens (Human), UniProt Q9BUB5). Briefly: Mnk1 kinase inhibition, ADP-Glo ADP monitoring assay. In kind it is biochemical. As to conditions: read-out: Mnk1 IC50.
Target sequence in this assay (Q9BUB5 whole entry): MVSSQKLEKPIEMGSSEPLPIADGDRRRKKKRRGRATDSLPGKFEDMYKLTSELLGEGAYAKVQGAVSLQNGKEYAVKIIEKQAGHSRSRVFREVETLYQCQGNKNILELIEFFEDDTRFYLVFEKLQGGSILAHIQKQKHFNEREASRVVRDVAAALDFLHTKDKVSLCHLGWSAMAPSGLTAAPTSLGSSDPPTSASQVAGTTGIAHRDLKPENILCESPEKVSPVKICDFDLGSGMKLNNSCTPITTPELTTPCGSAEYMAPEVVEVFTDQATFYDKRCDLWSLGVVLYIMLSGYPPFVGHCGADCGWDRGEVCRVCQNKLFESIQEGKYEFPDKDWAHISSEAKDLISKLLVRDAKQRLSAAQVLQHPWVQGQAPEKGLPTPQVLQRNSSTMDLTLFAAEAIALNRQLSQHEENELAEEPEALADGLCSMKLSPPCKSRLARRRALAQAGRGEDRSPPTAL
Method: (§2) The synthesized compounds then were tested for inhibition of the kinase activity (IC50) of Mnk1 and/or Mnk2 using the ADP monitoring assay for kinases described in Zegzouti, H.; Zdanovskaia, M.; Hsiao, K.; Goueli, S. A., ADP-Glo: A Bioluminescent and homogeneous ADP monitoring assay for kinases.
The next assay relates to MV4-11 cells. Put plainly: Cell viability assay (CellTiter-Glo), MV4-11. The class given is cell-based. Particulars: Homo sapiens.
Assay [4] addresses T1, Mnk1. Briefly: Cellular inhibition of Mnk1, flow cytometry of phospho-eIF-4E (Ser209), MV4-11 cells. The class given is cell-based. Particulars: phospho-eIF-4E Ser209, flow cytometry, read-out: MV4-11 pEIF4E IC50.
Target sequence in this assay (Q9BUB5 whole entry, looked up): as the sequence (Q9BUB5 whole entry) above
Method: as §1
The target in assay [5] is T1, Mnk1. Briefly: Cellular inhibition of Mnk1, flow cytometry of phospho-eIF-4E (Ser209), U937 cells. In kind it is cell-based. Particulars: phospho-eIF-4E Ser209, flow cytometry, read-out: U937 pEIF4E IC50.
Target sequence in this assay (Q9BUB5 whole entry, looked up): as the sequence (Q9BUB5 whole entry) above
Method: as §1
Where [6] appears, read: U-937, U937 cells, ATP levels with CellTiter-Glo, read-out: U937 viability EC50.
Setting [7] is: MV4-11 cells, ATP levels with CellTiter-Glo, read-out: MV4-11 viability EC50.
Setting [8] is: U-937, read-out: U937 viability EC50.
The mark [9] stands for this setting: MV4-11, read-out: MV4-11 viability EC50.

Method for Mnk2: as §2

Take `Clc1cnc(NCCc2cnc[nH]2)nc1-n1cnc2ccccc21` [NUCC-0175695]: the IC50 at Mnk1 [1] was 370 nM; at Mnk1 [2], 630 nM; on Mnk2 it was 72 nM; on Mnk1 [3], 530 nM. In addition, the EC50 in the assay with U937 cells (setting [6]) is over 10000 nM; with MV4-11 cells (setting [7]) it was 1000 nM.
Consider `O[C@@H]1CC[C@H](Nc2nccc(-n3cnc4ccccc43)n2)C1` [NUCC-0176144], for which the IC50 at Mnk1 [4] is 78 nM; on Mnk1 [5], 78 nM; at Mnk2, 28 nM; at Mnk1 [3], 150 nM. Further, the EC50 in the assay with U937 cells (setting [8]) was found to be 5700 nM; in the assay on MV4-11 cells (setting [9]), 170 nM.
Consider `O[C@H]1CC[C@H](Nc2nccc(-n3cnc4ccccc43)n2)C1` [NUCC-0176163], for which the IC50 is 74 nM on Mnk1 [4], 75 nM at Mnk1 [5], 41 nM on Mnk2 and 200 nM on Mnk1 [3]. Moreover, the EC50 in the assay on U937 cells (setting [8]) was determined as 8100 nM; with MV4-11 cells (setting [9]) it was 220 nM.
For `O[C@H]1CC[C@@H](Nc2nccc(-n3cnc4ccccc43)n2)C1` [NUCC-0176164], the IC50 amounted to 36 nM at Mnk1 [4], 62 nM on Mnk1 [5], 26 nM on Mnk2 and 100 nM on Mnk1 [3]. The 50% effective concentration (EC50) in the assay on U937 cells (setting [8]) is over 10000 nM; in the assay with MV4-11 cells (setting [9]) it was 180 nM.
On to `Fc1cnc(NCCc2ccncc2)nc1-n1cnc2ccccc21` [NUCC-0176281], for which the IC50 on Mnk1 [1] stood at 66 nM; on Mnk1 [2] it was 81 nM; on Mnk2, 49 nM; at Mnk1 [3], 330 nM. Also, the EC50 with U937 cells (setting [6]) amounted to 3400 nM; in the assay on MV4-11 cells (setting [7]), 240 nM.
With `FC(F)(F)c1cnc(NCCc2ccncc2)nc1-n1cnc2ccccc21` [NUCC-0176282, 4-(1H-benzo[d]imidazol-1-yl)-N-(2-(pyridin-4-yl)ethyl)-5-(trifluoromethyl)pyrimidin-2-amine], the IC50 on Mnk1 [1] is 100 nM; on Mnk1 [2], 140 nM; at Mnk2 it was 28 nM; at Mnk1 [3], 93 nM. In addition, the EC50 in the assay on U937 cells (setting [6]) came to 10000 nM; in the assay with MV4-11 cells (setting [7]), 4500 nM.
For `c1cncc(CCNc2ccnc(-n3cnc4ccccc43)n2)c1` [NUCC-0176341], the IC50 on Mnk1 [4] was found to be 35 nM; on Mnk1 [5], 42 nM; at Mnk2 it was 26 nM; at Mnk1 [3] it was 210 nM. The EC50 in the assay with U937 cells (setting [8]) stood at 13000 nM; in the assay on MV4-11 cells (setting [9]), 190 nM.
